Consider seven compounds from patent US8883765B2, “Anti-cytomegalovirus activity of artemisinin-derived dimers” (The John Hopkins University, priority 2009, dated 2014).

Read-outs that look alike come from different tables or passages of the source.

Data set [1] concerns GFP-tagged CMV (Towne-GFP). As to the kind of experiment: GFP-tagged CMV replication in pretreated HFF. In kind it is cell-based, human CMV. The conditions noted are these: pretreatment of HFF with different concentrations; data not shown. Here is the method:
The CMV strains used for infections were the highly-passaged Towne virus, and a clinical isolate obtained from the urine of a neonate with congenital CMV infection (SB) and passaged once in tissue culture. […] Initial experiments were performed using a recombinant human CMV-green fluorescent protein (GFP) virus, derived from Towne strain. […] J Virol.
(§1) Towne-GFP, Towne-luciferase, and SB viruses were used in these assays. HFF or HEL were grown to subconfluent monolayers and infected with the CMV viruses at MOI 0.1 to 3. […] J Mol Med. 2002; 80:233-242. The concentration of each compound was calculated and adjusted by volume such that it was constant throughout the experiment. Following 90 minute incubation, media was replaced with fresh media containing the drug used. Infected and treated cells were incubated at 37° C. in a 5% CO2 atmosphere for 3-10 days depending on the virus and the anti-viral assay. The recombinant luciferase-expressing virus was incubated for 72 hours, the GFP virus was incubated for 5 days, and the clinical isolate for 10 days. All experiments were subsequently repeated with compounds added to wells just after viral inoculation.

Data set [2] has as its system CMV IE1 protein expression. The data set can be described thus: Western blot for CMV immediate early protein IE1 (and GFP). The class given is cell-based, human CMV. More on the design: expression of IE1 and GFP: dose or concentration left out as unconfirmed. The conditions noted are these: for expression of IE1 and GFP: Towne-GFP, artemisinin; for IE1 expression: clinical isolate SB, MOI=1. Here is the method:
Monoclonal antibodies to CMV immediate early proteins IE-1 and IE-2 (MAb810) and to cellular β-actin were purchased from Millipore (Billerica, Mass.). Confluent cells were infected with CMV in the presence of artemisinin compounds. At the indicated times cells were harvested in sample buffer (RIPA buffer, Tris 50 mM, Nacl 150 mM, SDS 0.1%, Na Deoxycholate 0.5%, NP40 1%, and protease inhibitor cocktail), boiled and loaded onto SDS-PAGE. Proteins were separated by electrophoresis and transferred to nitrocellulose membrane. After blocking, blots were probed with primary antibody (1:3,000) overnight at 4° C. in phosphate-buffered saline, and Tween. After washing 3 times, blots were probed with HRP-conjugated anti-mouse (Sigma), 1:5,000 for 1 hour at room temperature. Blots were washed three times in phosphate-buffered saline/Tween, and then developed by enhanced chemiluminescence according to manufacturer protocol.
The expression of CMV immediate early (IE) protein was tested by western blot to determine whether artemisinins' inhibition of CMV replication occurs early in the virus life cycle. […] Further evidence for the early effect of artemisinins on IE1 protein expression was obtained with the clinical isolate (SB, FIG. 5b). […] Stinski M F. Sequence of protein synthesis in cells infected by human cytomegalovirus: early and late virus-induced polypeptides. J Virol. 1978; 26:686-701.

The target of data set [3] is pp 28-luciferase expressing CMV (Towne). As to the kind of experiment: microbe, parasite or virus in culture. The class given is cell-based, human CMV. The conditions noted are these: for inhibition of CMV replication: different batches and passages of HFF, and HEL cells.
Source text: A recombinant virus expressing luciferase reporter gene under the control of UL99 (pp 28) late promoter was generated by insertion of the reporter gene between the US9 and US10 ORFs in the Towne genome. […] Ahn J H, Hayward G S. Disruption of PML-associated nuclear bodies by IE1 correlates with efficient early stages of viral gene expression and DNA replication in human cytomegalovirus infection. Virology. 2000; 274:39-55.
as §1

Data set [4] has as its system Human Foreskin Fibroblasts (HFF).
Experimental: (§2) Cellular cytotoxicity was determined using CellTiter-Glo® Luminescent Cell Viability Assay (Promega, Madison, Wis.). The assay determines the number of viable cells in culture based on quantification of the ATP present.
(§3) For EC50 and CC50 reported values represent the mean and SD of data derived from at least five independent experiments performed in triplicates.
Data set [5] deals with recombinant luciferase-expressing CMV. The data set can be described thus: Plaque reduction assay in human embryonic lung cells (HEL). In kind it is cell-based, human CMV. The conditions noted are these: 10 μM, luciferase virus.
Experimental: For plaque reduction assay, human embryonic lung cells were seeded into six-well plates and incubated at 37° C. one day prior to infection with the recombinant luciferase-expressing CMV. […] The virus was diluted to a desired concentration which gave 50-60 plaques per well. Medium was aspirated from the wells, and 0.2 ml of virus suspension was added to each well in triplicates. Plates were incubated for 90 minutes with shaking every 10 min, thereafter drugs were added and a methylcellulose overlay applied to each well. After incubation for 10 days, cells were stained with crystal violet. The stain was aspirated, wells were washed with phosphate-buffered saline, and plaques were counted.
The subject of data set [6] is Human Foreskin Fibroblasts (HFF). The data set can be described thus: Cellular cytotoxicity, CellTiter-Glo Luminescent Cell Viability Assay. The conditions noted are these: drug concentration that leads to 50% cellular cytotoxicity; mean and SD, at least five experiments in triplicates.
Experimental: as §2, §3
The next data set relates to CMV clinical isolates. The conditions noted are these: 11.1 μM; cited from earlier work.
Data set [7] relates to Toxoplasmosis (Toxoplasma gondii). As to the kind of experiment: Anti-toxoplasmosis activity of supernatants of CMV infected cells. In kind it is cell-based. The conditions noted are these: supernatants of CMV infected cells at 3-5 days post infection. How it is done:
To confirm that the difference in anti-CMV activity between monomers and dimers was not a result of instability of the monomers in tissue culture, the anti-toxoplasmosis activity of these compounds was determined in the supernatants of CMV infected cells at 3-5 days post infection. […] Antimicrob Agents Chemother. 2006; 50:4206-4208.

For `C[C@@H]1CC[C@H]2[C@@H](C)C(=O)O[C@@H]3O[C@@]4(C)CC[C@@H]1[C@]32OO4` [Artemisinin (1), Artemisinin], the CMV replication entry in data set [1] is recorded as “dose-dependent reduction”. Further, the “expression of IE1 and GFP” value is recorded as “undetectable” in data set [2] (MOI of 0.1) and “decreased” in data set [2] (MOI of 0.5).
As for `C[C@H]1[C@@H](CCC(=O)Nc2ccc(F)cc2)O[C@@H]2OC3(C)CC[C@H]4[C@H](C)CC[C@@H]1[C@@]24OO3` [Artefanilide (3), Artefanilide], the EC50 in data set [3] (Table 1, 50% virus inhibition, mean and SD, at least five experiments in triplicates, read-out: EC50) worked out at 8.1 ± 2.2 µM. Moreover, the CC50 in data set [4] was 44.9 ± 3.4 µM.
For `Nc1nc(O)c2ncn(COC(CO)CO)c2n1` [GCV, Ganciclovir], the IE1 expression entry in data set [2] (10 μM) is recorded as “not affected”. The “CMV inhibition compared with the four monomers” value in data set [3] (10 μM, FIG. 2) is reported as “more potent”. In data set [5], the “reduction in plaque formation” value is given as 80%.
As for `C[C@H]1[C@H](OC(=O)CCC(=O)O)O[C@@H]2O[C@@]3(C)CC[C@H]4[C@H](C)CC[C@@H]1[C@@]24OO3` [Artesunate (2d), Artesunate], the CC50 in data set [6] worked out at 77.5 ± 14.4 µM. In data set [3] (Human betaherpesvirus 5), this compound registered an EC50 of 18.5 ± 5.2 µM. In addition, in the data set with CMV clinical isolates, the “in-vitro inhibition of clinical isolates” value is on record as 50-80%.
As for `C[C@H]1[C@@H](CC(COP(=O)(Oc2ccccc2)Oc2ccccc2)C[C@H]2O[C@@H]3O[C@@]4(C)CC[C@H]5[C@H](C)CC[C@@H]([C@H]2C)[C@@]35OO4)O[C@@H]2O[C@@]3(C)CC[C@H]4[C@H](C)CC[C@@H]1[C@@]24OO3` (stereo partly drawn) [Dimer isobu-OP(O)(OPh)2], the “rank as CMV inhibitor among eight representative dimers” value in data set [3] (FIGS. 7 and 8) is listed as “most potent”. Moreover, in data set [3] (eight representative dimers, FIGS. 7 and 8), the selectivity index is > 1000.
Compound `C[C@H]1[C@@H](CC(CO)C[C@H]2O[C@@H]3O[C@@]4(C)CC[C@H]5[C@H](C)CC[C@@H]([C@H]2C)[C@@]35OO4)O[C@@H]2O[C@@]3(C)CC[C@H]4[C@H](C)CC[C@@H]1[C@@]24OO3` (stereo partly drawn) [Dimer primary alcohol (4)] had an EC50 in data set [7] of 0.4 ± 0.15 µM. The “time post infection at which inhibition of IE1 expression was observed (as early as)” value in data set [2] (SB, MOI=3, prior to onset of DNA replication) was found to be 12 h. Besides, the IE1 expression entry in data set [2] (1-μM, 24 and 48 hr) is “significantly reduced”. In addition, in data set [3], the “inhibition of CMV replication” value was “dramatic inhibition”.
Regarding `C[C@H]1[C@@H](CC(C[C@H]2O[C@@H]3O[C@@]4(C)CC[C@H]5[C@H](C)CC[C@@H]([C@H]2C)[C@@]35OO4)CS(=O)(=O)c2ccc(COC(=O)N(C)C)cc2)O[C@@H]2O[C@@]3(C)CC[C@H]4[C@H](C)CC[C@@H]1[C@@]24OO3` (stereo partly drawn) [Dimer sulfone carbamate (6)], the “inhibition of CMV replication” value in data set [3] is “dramatic inhibition”.
